Reference: US10962529B1 (priority 2020, dated 2021)
“Also recorded” adds a separate entry of the source.

Assays:
Type in all cases: biochemical
[1] = test system: SARS-COV-2 total protease; assay: High throughput FRET screening of fluorogenic dipeptide substrates; conditions: for Relative fluorescence (change in the fluorescence signal in the presence of SARS-COV-2 protease): relative to FITC-Ahx-H-d-K(Dabcyl) = 100, ex 485 nm, em 535 nm; for Relative fluorescence (change in the fluorescence signal in the presence of SARS-COV-2 protease) / Fluorescence intensity increase relative to H-d peptide: 37° C.; for Fluorescence intensity increase relative to H-d peptide: H-d set as relative scale of 100%
[2] = test system: MERS-COV protease (viral particles)
[3] = test system: SARS-COV-2 live virus (protease); assay: Real-time fluorescence kinetics and detection limit of FRET substrate with live virus

Substance | Relative fluorescence (change in the fluorescence signal in the presence of SARS-COV-2 protease) [1] | further results
FITC-Ahx-E-d-K(Dabcyl) | 58 | –
FITC-Ahx-F-R-K(Dabcyl) | 82 | Fluorescence intensity increase relative to H-d peptide [1]: 82%
FITC-Ahx-H-d-K(Dabcyl) | 100 | Increase in the fluorescence intensity in the presence of MERS-COV virus [2]: less than 20%; Change in the fluorescence signal of the substrate [3]: no significant change; Fraction of the reaction completed within 30 minutes [3]: more than 50%; Time after which the fluorescence curve plateaus [3]: 1.5 h; Fluorescence intensity increase relative to H-d peptide [1]: 100%
FITC-Ahx-K-K-K(Dabcyl) | 62 | –
FITC-Ahx-K-d-K(Dabcyl) | 47 | –
FITC-Ahx-P-P-K(Dabcyl) | 55 | –
FITC-Ahx-R-d-K(Dabcyl) | 67 | –
FITC-Ahx-R-h-K(Dabcyl) [reference compound] | – | Increase in the fluorescence intensity in the presence of SARS-COV-2 protease ([1]; incubated at 37° C., after 3 hours): insignificant increase; also recorded: very minimum fluorescence change
